From patent US20210187016A1, “METHOD OF TREATING NONALCOHOLIC STEATOHEPATITIS” (Vector Vitale IP LLC, priority 2019, published 2021)

Assay: Intraperitoneal administration to intact rats: accumulation of metals in liver and kidney tissues
Type: in vivo
Conditions: day 1 and day 7 after drug withdrawal, 3750 μg of zinc per kg intraperitoneally, 7 injections
Protocol: Animals are placed in cages, 4 per cage, with free access to food/water. […] Administration is performed every other day, in the amount of 7 injections per animal (intraperitoneal method of drug administration). […] After the last injection, a half of the animals are maintained on hunger (for 12 hours) with free access to water. Upon expiration of this time period, the animals are taken out of the experiment. The second half of the animals continues to have free access to food/water for a further 7 days. On day 6 after the last injection, the animals are maintained on hunger (for 12 hours) with free access to water. Upon expiration of this time period, the animals are taken out of the experiment.
The total kidney, liver and muscle homogenates were prepared as follows. Organ excision and homogenization were carried out at a temperature of 1-4° C. […] The volume of the used buffer in ml was 5 times larger than the mass of isolated organs in grams. The isolated liver was perfused with chilled saline (0.9% NaCl) via the portal vein using a syringe. The minced liver was transferred to a homogenizer with a finely ground Teflon pestle and homogenized in chilled buffer. An isolated pair of kidneys was perfused with chilled saline, released from adipose tissue and minced with scissors. […]

With CC(=O)[O-].CC(=O)[O-].[Zn+2] [Zn acetate, Zinc acetate] the “Zinc level in liver and kidney tissues” value was “significantly increased”.
